These results are taken from patent US20230312478A1, “HERBICIDAL COMPOUNDS” (SYNGENTA CROP PROTECTION AG, priority 2020, published 2023).

Holding throughout (format): in vivo
Holding throughout (conditions): 250 g/ha, evaluated visually after 13 days, scale 0-5

Experiment [1] deals with Zea mays (ZEAMX). Nature of the experiment: Herbicidal efficacy, application pre-emergence. On the procedure:
(§1) Seeds of a variety of test species [Ipomoea hederacea (IPOHE); Zea mays (ZEAMX); Echinochloa crus-galli (ECHCG); Setaria faberi (SETFA); Abutilon theophrasti (ABUTH); Amaranthus retroflexus (AMARE)] were sown in standard sterilised soil in pots. After cultivation for one day (pre-emergence) or after 8 days cultivation (post-emergence) under controlled conditions in a glasshouse (at 24/16° C., day/night; 14 hours light; 65 % humidity), the plants were sprayed with an aqueous spray solution derived from the formulation of the technical active ingredient in acetone / water (50:50) solution containing 0.5% Tween 20 (polyoxyethelyene sorbitan monolaurate, CAS RN 9005-64-5), subsequently diluted in water, and sprayed to give the stated application rate.
(§2) The test plants were then grown under controlled conditions in a glasshouse (at 24/16° C., day/night; 14 hours light; 65 % humidity) and watered twice daily.
(§3) After 13 days for pre- and post-emergence, the test was evaluated visually for percentage phytotoxicity to the plant (where 5 = total damage to plant; 0 = no damage to plant).

Experiment [2] relates to Amaranthus retroflexus (AMARE). The experiment can be described thus: Herbicidal efficacy, application pre-emergence. Also noted: key: 5 = total damage to plant; 0 = no damage to plant. Here is the method:
as §1, §2, §3

Experiment [3] concerns Ipomoea hederacea (IPOHE). Nature of the experiment: Herbicidal efficacy, application pre-emergence. Also noted: key: 5 = total damage to plant; 0 = no damage to plant. Here is the method: as §1, §2, §3
The subject of experiment [4] is Setaria faberi (SETFA). The experiment can be described thus: Herbicidal efficacy, application pre-emergence. Also noted: key: 5 = total damage to plant; 0 = no damage to plant. On the procedure: as §1, §2, §3
Experiment [5] deals with Abutilon theophrasti (ABUTH). The experiment can be described thus: Herbicidal efficacy, application pre-emergence. On the set-up: key: 5 = total damage to plant; 0 = no damage to plant. On the procedure:
as §1, §2, §3

Experiment [6] deals with Echinochloa crus-galli (ECHCG). Nature of the experiment: Herbicidal efficacy, application pre-emergence. Also noted: key: 5 = total damage to plant; 0 = no damage to plant. On the procedure: as §1, §2, §3
The test system of experiment [7] is Amaranthus retroflexus (AMARE). Nature of the experiment: Herbicidal efficacy, application post-emergence. Here is the method: as §1, §2, §3
Experiment [8] has as its system Ipomoea hederacea (IPOHE). Nature of the experiment: Herbicidal efficacy, application post-emergence. Here is the method: as §1, §2, §3
Experiment [9] relates to Setaria faberi (SETFA). Nature of the experiment: Herbicidal efficacy, application post-emergence. Here is the method: as §1, §2, §3
Experiment [10] concerns Zea mays (ZEAMX). The experiment can be described thus: Herbicidal efficacy, application post-emergence. Here is the method:
as §1, §2, §3

Experiment [11] deals with Echinochloa crus-galli (ECHCG). Nature of the experiment: Herbicidal efficacy, application post-emergence. On the procedure:
as §1, §2, §3

Experiment [12] concerns Abutilon theophrasti (ABUTH). The experiment can be described thus: Herbicidal efficacy, application post-emergence. Also noted: key: 5 = total damage to plant; 0 = no damage to plant. Here is the method:
as §1, §2, §3

As to `Cc1cc(C2CN(C)C(=O)C2C(=O)Nc2ccc(F)nc2F)nn1C(F)F` (stereo not drawn) [Compound 81, 4-[1-(difluoromethyl)-5-methyl-pyrazol-3-yl]-N-(2,6-difluoro-3-pyridyl)-1-methyl-2-oxo-pyrrolidine-3-carboxamide], the “phytotoxicity to the plant, ZEAMX” value in the experiment with Zea mays (ZEAMX) [1] is given as 2; in the experiment with Zea mays (ZEAMX) [10] it was 4. Moreover, the “phytotoxicity to the plant, AMARE” value amounted to 0 in [2] and 2 in [7]. The figures for the “phytotoxicity to the plant, IPOHE” value in [3] and in [8] were 2 and 1, respectively. Further, the entries for the “phytotoxicity to the plant, SETFA” value in the experiment on Setaria faberi (SETFA) [4] and in the experiment with Setaria faberi (SETFA) [9] were 5 and 4, respectively. Moreover, the “phytotoxicity to the plant, ABUTH” value in experiment [5] and in [12] was 0 throughout. The “phytotoxicity to the plant, ECHCG” value amounted to 5 in experiment [6] and 4 in experiment [11].

Regarding `Cc1cc(C2CN(C)C(=O)C2C(=O)Nc2ccc(F)cc2F)nn1C(F)F` (stereo not drawn) [Compound 57, 4-[1-(difluoromethyl)-5-methyl-pyrazol-3-yl]-N-(2,4-difluorophenyl)-1-methyl-2-oxo-pyrrolidine-3-carboxamide], the “phytotoxicity to the plant, ZEAMX” value in the experiment on Zea mays (ZEAMX) [1] and in the experiment on Zea mays (ZEAMX) [10] was 2 throughout. For the same compound, the “phytotoxicity to the plant, AMARE” value in experiment [2] and in [7] was 1 throughout. For the same compound, the figures for the “phytotoxicity to the plant, IPOHE” value in [3] and in experiment [8] were 1 and 3, respectively. Further, the results for the “phytotoxicity to the plant, SETFA” value with Setaria faberi (SETFA) [4] and in the experiment with Setaria faberi (SETFA) [9] were 5 and 4, respectively. Besides, the “phytotoxicity to the plant, ABUTH” value in experiment [5] and in [12] was 1 in each case. Besides, the entries for the “phytotoxicity to the plant, ECHCG” value in experiment [6] and in experiment [11] were 5 and 4, respectively.

With `CCc1cc(C2CN(C)C(=S)C2C(=O)Nc2ccc(F)cc2F)nn1C(F)F` (stereo not drawn) [Compound 62, 4-[1-(difluoromethyl)-5-ethyl-pyrazol-3-yl]-N-(2,4-difluorophenyl)-1-methyl-2-thioxo-pyrrolidine-3-carboxamide], the “phytotoxicity to the plant, ZEAMX” value was found to be 2 in the experiment on Zea mays (ZEAMX) [1] and 1 in the experiment on Zea mays (ZEAMX) [10]. Besides, the “phytotoxicity to the plant, AMARE” value in experiment [2] amounted to 0; in experiment [7], 1. Also, the “phytotoxicity to the plant, IPOHE” value is 0 in [3] and 1 in experiment [8]. In addition, the entries for the “phytotoxicity to the plant, SETFA” value with Setaria faberi (SETFA) [4] and in the experiment with Setaria faberi (SETFA) [9] were 5 and 4, respectively. For the same compound, the “phytotoxicity to the plant, ABUTH” value is 0 in [5] and 1 in experiment [12]. Further, the “phytotoxicity to the plant, ECHCG” value in experiment [6] worked out at 5; in [11], 4.

With `Cc1cc(C2CN(C)C(=S)C2C(=O)Nc2ccc(F)cc2F)nn1C(F)F` (stereo not drawn) [Compound 61, 4-[1-(difluoromethyl)-5-methyl-pyrazol-3-yl]-N-(2,4-difluorophenyl)-1-methyl-2-thioxo-pyrrolidine-3-carboxamide], the “phytotoxicity to the plant, ZEAMX” value in the experiment with Zea mays (ZEAMX) [1] is on record as 1; in the experiment with Zea mays (ZEAMX) [10], 2. The “phytotoxicity to the plant, AMARE” value in experiment [2] is recorded as 2; in [7] it was 1. Also, the “phytotoxicity to the plant, IPOHE” value came to 0 in experiment [3] and 1 in experiment [8]. Moreover, the “phytotoxicity to the plant, SETFA” value in the experiment with Setaria faberi (SETFA) [4] is 5; in the experiment with Setaria faberi (SETFA) [9], 3. For the same compound, the “phytotoxicity to the plant, ABUTH” value in experiment [5] and in experiment [12] was 0 in each case. Moreover, the entries for the “phytotoxicity to the plant, ECHCG” value in experiment [6] and in experiment [11] were 5 and 4, respectively.

For the compound `CCc1cc(C2CN(C)C(=S)C2C(=O)Nc2cccc(F)c2F)nn1C(F)F` (stereo not drawn) [Compound 38, 4-[1-(difluoromethyl)-5-ethyl-pyrazol-3-yl]-N-(2,3-difluorophenyl)-1-methyl-2-thioxo-pyrrolidine-3-carboxamide], the “phytotoxicity to the plant, ZEAMX” value stood at 4 in the experiment on Zea mays (ZEAMX) [1] and 3 with Zea mays (ZEAMX) [10]. In addition, the “phytotoxicity to the plant, AMARE” value in experiment [2] is 0; in [7], 1. In addition, the “phytotoxicity to the plant, IPOHE” value is recorded as 2 in experiment [3] and 4 in [8]. In addition, the results for the “phytotoxicity to the plant, SETFA” value in the experiment with Setaria faberi (SETFA) [4] and in the experiment on Setaria faberi (SETFA) [9] were 5 and 4, respectively. In addition, the “phytotoxicity to the plant, ABUTH” value in experiment [5] and in [12] was 0 each time. The “phytotoxicity to the plant, ECHCG” value in [6] was 5; in experiment [11] it was 4.

Take `CCc1cc(C2CN(C)C(=O)C2C(=O)Nc2ccc(F)cc2F)nn1C(F)F` (stereo not drawn) [Compound 58, 4-[1-(difluoromethyl)-5-ethyl-pyrazol-3-yl]-N-(2,4-difluorophenyl)-1-methyl-2-oxo-pyrrolidine-3-carboxamide]: the “phytotoxicity to the plant, ZEAMX” value in the experiment on Zea mays (ZEAMX) [1] is 3; in the experiment on Zea mays (ZEAMX) [10], 2. The figures for the “phytotoxicity to the plant, AMARE” value in experiment [2] and in experiment [7] were 0 and 1, respectively. Moreover, the “phytotoxicity to the plant, IPOHE” value in experiment [3] is 1; in experiment [8] it was 3. Further, the entries for the “phytotoxicity to the plant, SETFA” value with Setaria faberi (SETFA) [4] and in the experiment with Setaria faberi (SETFA) [9] were 5 and 4, respectively. Further, the “phytotoxicity to the plant, ABUTH” value in experiment [5] and in experiment [12] was 0 each time. Besides, the “phytotoxicity to the plant, ECHCG” value is given as 5 in [6] and 4 in [11].

As to `Cc1cc(C2CN(C)C(=S)C2C(=O)Nc2ccc(F)nc2F)nn1C(F)F` (stereo not drawn) [Compound 85, 4-[1-(difluoromethyl)-5-methyl-pyrazol-3-yl]-N-(2,6-difluoro-3-pyridyl)-1-methyl-2-thioxo-pyrrolidine-3-carboxamide], the “phytotoxicity to the plant, ZEAMX” value in the experiment with Zea mays (ZEAMX) [1] and in the experiment with Zea mays (ZEAMX) [10] was 1 in each case. The entries for the “phytotoxicity to the plant, AMARE” value in [2] and in experiment [7] were 0 and 1, respectively. Further, the “phytotoxicity to the plant, IPOHE” value in experiment [3] is 0; in experiment [8] it was 1. Moreover, the “phytotoxicity to the plant, SETFA” value with Setaria faberi (SETFA) [4] was 4; in the experiment with Setaria faberi (SETFA) [9] it was 2. In addition, the “phytotoxicity to the plant, ABUTH” value in experiment [5] and in experiment [12] was 0 each time. Also, the “phytotoxicity to the plant, ECHCG” value in experiment [6] and in experiment [11] was 4 each time.

Turning to `CCc1cc(C2CN(C)C(=S)C2C(=O)Nc2ccc(F)nc2F)nn1C(F)F` (stereo not drawn) [Compound 86, 4-[1-(difluoromethyl)-5-ethyl-pyrazol-3-yl]-N-(2,6-difluoro-3-pyridyl)-1-methyl-2-thioxo-pyrrolidine-3-carboxamide], the figures for the “phytotoxicity to the plant, ZEAMX” value with Zea mays (ZEAMX) [1] and in the experiment with Zea mays (ZEAMX) [10] were 1 and 3, respectively. Also, the “phytotoxicity to the plant, AMARE” value in [2] is listed as 2; in experiment [7], 1. The “phytotoxicity to the plant, IPOHE” value in [3] amounted to 0; in experiment [8], 1. Besides, the entries for the “phytotoxicity to the plant, SETFA” value in the experiment with Setaria faberi (SETFA) [4] and in the experiment with Setaria faberi (SETFA) [9] were 5 and 4, respectively. Besides, the entries for the “phytotoxicity to the plant, ABUTH” value in experiment [5] and in experiment [12] were 1 and 3, respectively. Also, the “phytotoxicity to the plant, ECHCG” value in experiment [6] is 5; in [11], 4.

Take `Cc1c(Br)c(C2CN(C)C(=O)C2C(=O)Nc2ccc(F)cc2F)nn1C(F)F` (stereo not drawn) [Compound 59, 4-[4-bromo-1-(difluoromethyl)-5-methyl-pyrazol-3-yl]-N-(2,4-difluorophenyl)-1-methyl-2-oxo-pyrrolidine-3-carboxamide]: the entries for the “phytotoxicity to the plant, ZEAMX” value in the experiment on Zea mays (ZEAMX) [1] and in the experiment on Zea mays (ZEAMX) [10] were 1 and 3, respectively. Moreover, the entries for the “phytotoxicity to the plant, AMARE” value in [2] and in experiment [7] were 0 and 1, respectively. Also, the “phytotoxicity to the plant, IPOHE” value in experiment [3] worked out at 0; in experiment [8], 1. The “phytotoxicity to the plant, SETFA” value in the experiment with Setaria faberi (SETFA) [4] stood at 5; with Setaria faberi (SETFA) [9] it was 4. Further, the “phytotoxicity to the plant, ABUTH” value in experiment [5] is on record as 1; in experiment [12], 0. In addition, the “phytotoxicity to the plant, ECHCG” value was 5 in experiment [6] and 4 in experiment [11].
